Source: patent US7329518B2, “Enzyme for producing optically active pyridineethanol derivatives” (Kaneka Corporation, priority 1999, dated 2008)

system: FPDH; assay: Behaviors of FPDH against inhibitors (reducing activity measurement with added compounds and metal salts); assay type: biochemical, Candida maris IFO 10003; details: inhibitor 0.01 mM; activity without inhibitor = 100%; 1 mM 5-acetylfuro[2,3-c]pyridine, 0.25 mM NADH, pH 6.5, 30° C.

Structure (SMILES) | Relative activity [%]
O=c1c(O)c(-c2ccc(O)c(O)c2)oc2cc(O)cc(O)c12 [Quercetin] | 78
O=C(O)c1cc(SSc2ccc([N+](=O)[O-])c(C(=O)O)c2)ccc1[N+](=O)[O-] [DTNB] | 98

same assay, conditions: inhibitor 0.1 mM; activity without inhibitor = 100%; 1 mM 5-acetylfuro[2,3-c]pyridine, 0.25 mM NADH, pH 6.5, 30° C.

Structure (SMILES) | Relative activity [%]
O=C(O)c1cc[c]([Hg][Cl])cc1 [p-Chloromercuribenzoic acid] | 100

same assay, conditions: inhibitor 1.0 mM; activity without inhibitor = 100%; 1 mM 5-acetylfuro[2,3-c]pyridine, 0.25 mM NADH, pH 6.5, 30° C.

Structure (SMILES) | Relative activity [%]
c1cnc2c(c1)ccc1cccnc12 [1,10-Phenanthroline] | 98
OCCS [2-Mercaptoethanol] | 94
O=C(O)CN(CCN(CC(=O)O)CC(=O)O)CC(=O)O [EDTA] | 98
O=S(=O)([O-])[O-].[Cu+2] [CuSO4] | 103
[Cl][Mn][Cl] [MnCl2] | 76
O=S(=O)([O-])[O-].[Mg+2] [MgSO4] | 81
O[C@H](CS)[C@H](O)CS (racemic) [Dithiothreitol] | 93
O=S(=O)([O-])[O-].[Zn+2] [ZnSO4] | 74
CCN1C(=O)C=CC1=O [N-ethylmaleimide] | 84
[Cl][Hg][Cl] [HgCl2] | 0

same assay, conditions: pH 6.5

Structure (SMILES) | Relative activity [%]
[Cl-].[Cl-].[Co+2] [CoCl2] | 85
O=C(O)CI [Iodoacetic acid] | 80

same assay, conditions: standard reaction conditions for reducing activity measurement

Structure (SMILES) | Inhibition of the enzyme activity (in words)
[Hg+2] [mercury ion] | inhibited

system: FPDH; assay: Specificity of FPDH: reducing activity against various carbonyl compounds as substrates; assay type: biochemical, Candida maris IFO 10003; details: substrate 1 mM; 5-acetylfuro[2,3-c]pyridine = 100%; 0.25 mM NADH, pH 6.5, 30° C.
Description: In the practice of the invention, the reducing activity of the enzyme is determined by carrying out the reaction in 3.0 ml of a reactant mixture containing 1 mM substrate, 0.25 mM coenzyme NADH, 0.3% (vol/vol) dimethyl sulfoxide and an enzyme solution in 100 mM phosphate buffer (pH 6.5) at 30° C. for 3 minutes and then measuring the reduction in absorbance at 340 nm.
The term “very low in reducing activity” referring to the specificity means that when the reducing activity against 5-acetylfuro[2,3-c]pyridine is taken as 100%, the reducing activity against the substrate in question is not more than 10%. The term “carbocyclic ketones” means ketones, such as cyclohexanone and cyclopentanone, derived from alicyclic compounds by substituting —C(═O)— for a ring constituent —CH2— thereof.
Hereafter, the reducing activity was measured by allowing the reaction to proceed at 30° C. for 3 minutes in 3.0 ml of a reaction mixture containing 1 mM 5-acetylfuro[2,3-c]pyridine (substrate), 0.25 mM NADH, 0.3% (vol/vol) dimethyl sulfoxide and 0.05 ml of the enzyme solution in 100 mM phosphate buffer (pH 6.5) and measuring the decrease in absorbance at the wavelength 340 nm. These conditions were employed as standard reaction conditions for reducing activity measurement. The enzyme activity oxidizing 1 μmole of NADH to NAD^+ in one minute under these reaction conditions was defined as 1 unit.
The reducing activity of FPDH was examined against various compounds. Activity measurements were conducted under the standard reaction conditions for reducing activity measurement using various carbonyl compounds shown in Table 8 and Table 9 as substrates in lieu of 5-acetylfuro[2,3-c]pyridine. In Table 8 and Table 9, the results are shown in terms of relative activity with the reducing activity when 5-acetylfuro[2,3-c]pyridine was used as the substrate being taken as 100%. As a result, FPDH had reducing activity against ketones and aldehydes but the reducing activity thereof was very low against carbocyclic ketones and the ketone in position α to a carboxyl group.

Structure (SMILES) | Relative activity (reducing activity, Table 8) [%] | Relative activity (reducing activity, Table 9) [%]
CC(=O)c1ccncc1 [4-Acetylpyridine] | 130 | –
O=C(CCl)c1cccc(Cl)c1 [2,3′-Dichloroacetophenone] | 19 | –
CC(=O)c1cccs1 [2-Acetylthiophene] | 77 | –
CCOC(=O)C(C)=O [Ethyl pyruvate] | 133 | –
CCCCCC=O [n-Hexyl aldehyde] | – | 71
O=Cc1ccncc1 [Pyridine-4-aldehyde] | – | 64
CC(=O)c1ccc[nH]1 [2-Acetylpyrrole] | 100 | –
CC(=O)c1cc2ccoc2c(Cl)n1 [1-Chloro-5-acetylfuro[2,3-c]pyridine] | 66 | –
CC(=O)C1CCCCC1=O (centres unmarked) [1-Acetylcyclohexanone] | 68 | –
O=C1CCCCCC1 [Cycloheptanone] | – | 4
O=C1CCc2ccccc2C1 [2-Tetralone] | – | 0
O=Cc1ccc([N+](=O)[O-])cc1 [p-Nitrobenzaldehyde] | – | 162
CC(=O)c1ccccc1 [Acetophenone] | 88 | –
CC(=O)c1cnccn1 [Acetylpyrazine] | 133 | –
CC(=O)CC(C)=O [Acetylacetone] | 123 | –
CC(=O)C(C)C [Methyl isopropyl ketone] | 43 | –
CC(=O)C(C)=O [Diacetyl] | 107 | –
O=C(O)CC(=O)C(=O)O [Oxalacetic acid] | – | 4
CC12CCC(C(=O)C1=O)C2(C)C (centres unmarked) [Camphorquinone] | – | 3
O=C(CO)c1ccccc1 [2-Hydroxyacetophenone] | 54 | –
CCCC(C)=O [2-Pentanone] | 67 | –

Structure (SMILES) | Relative activity (reducing activity, Table 8) [%] | Relative activity (reducing activity, Table 9) [%]
CCOC(=O)CC(C)=O [Ethyl acetoacetate] | – | 141
O=Cc1cccc(Cl)c1 [m-Chlorobenzaldehyde] | – | 111
O=Cc1cccc([N+](=O)[O-])c1 [m-Nitrobenzaldehyde] | – | 103
CC(=O)CC(C)C [Methyl isobutyl ketone] | 14 | –
CC(=O)c1cccc([N+](=O)[O-])c1 [m-Nitroacetophenone] | 136 | –
O=Cc1ccccc1Cl [o-Chlorobenzaldehyde] | – | 0
CC(=O)c1ccc(F)cc1 [p-Fluoroacetophenone] | 88 | –
CC(=O)C(C)O (centres unmarked) [Acetoin] | 43 | –
CC(=O)c1nccs1 [2-Acetylthiazole] | 86 | –
CC(=O)c1cccnc1 [3-Acetylpyridine] | 107 | –
CCC(=O)CC [Diethyl ketone] | 22 | –
CCC=O [Propionaldehyde] | – | 70
O=C1CCCC1 [Cyclopentanone] | – | 3
CC=O [Acetaldehyde] | – | 36
O=Cc1ccccc1[N+](=O)[O-] [o-Nitrobenzaldehyde] | – | 9
CC(=O)C(=O)O [Pyruvic acid] | – | 3
CC(=O)CCc1ccccc1 [Benzylacetone] | 96 | –
CC(=O)c1ccccc1Cl [o-Chloroacetophenone] | 9 | –
CC(=O)c1ccccn1 [2-Acetylpyridine] | 111 | –
CCCC(=O)C(=O)O [2-Keto-n-valeric acid] | – | 7
CCCC=O [n-Butyr aldehyde] | – | 123

Structure (SMILES) | Relative activity (reducing activity, Table 8) [%] | Relative activity (reducing activity, Table 9) [%]
COC(=O)CC(C)=O [Methyl acetoacetate] | – | 128
CCC(=O)C(=O)O [2-Ketobutyric acid] | – | 5
CCOC(=O)C(Cl)C(C)=O (centres unmarked) [Ethyl 2-chloroacetoacetate] | – | 88
O=Cc1ccccc1 [Benzaldehyde] | – | 94
CCCCCCC(C)=O [2-Octanone] | 38 | –
CC(=O)c1cc2ccoc2cn1 [5-Acetylfuro[2,3-c]pyridine] | 100 | –
CC(=O)c1ccc(Cl)cc1 [p-Chloroacetophenone] | 88 | –
O=Cc1ccc(Cl)cc1 [p-Chlorobenzaldehyde] | – | 104
CC(C)=O [Acetone] | 40 | –
CC(=O)C1CCCC1=O (centres unmarked) [1-Acetylcyclopentanone] | 86 | –
O=Cc1cccnc1 [Pyridine-3-aldehyde] | – | 47
CCC(C)=O [2-Butanone] | 94 | –
O=Cc1ccccn1 [Pyridine-2-aldehyde] | – | 54
CC(=O)c1ccc([N+](=O)[O-])cc1 [p-Nitroacetophenone] | 116 | –
O=C1CCCCC1 [Cyclohexanone] | – | 4
CCCCC(C)=O [2-Hexanone] | 38 | –
COC(=O)C(C)=O [Methyl pyruvate] | 132 | –
CC(=O)c1ccco1 [2-Acetylfuran] | 43 | –
CC(=O)c1cccc(Cl)c1 [m-Chloroacetophenone] | 120 | –
O=C1CCCc2ccccc21 [1-Tetralone] | – | 2

system: FPDH; assay: Oxidation activity of FPDH against various compounds as substrates; assay type: biochemical, Candida maris IFO 10003; details: substrate 1 mM; 5-(1-(R)-hydroxyethyl)furo[2,3-c]pyridine = 100%; 0.25 mM NAD+, pH 8.0, 30° C.
Description: Further, FPDH was examined for oxidation activity against various compounds. The oxidation activity was measured by allowing the reaction to proceed at 30° C. for 3 minutes in 3.0 ml of a reaction mixture containing 1 mM substrate, 0.25 mM NAD^+, 0.3% (vol/vol) dimethyl sulfoxide and 0.05 ml of the enzyme solution in 100 mM phosphate buffer (pH 8.0) and measuring the increase in absorbance at the wavelength 340 nm. These conditions were employed as standard reaction conditions for oxidizing activity substrate measurement. The enzyme activity reducing 1 μmole of NAD^+ to NADH in one minute under these reaction conditions was defined as 1 unit. The data shown in Table 10 are relative activities with the oxidation activity against the substrate 5-(1-(R)-hydroxyethyl)furo[2,3-c]pyridine being taken as 100%.

Structure (SMILES) | Relative activity (oxidation activity) [%]
C=CCC(C)O (centres unmarked) [4-Penten-2-ol] | 172
C=CC(C)O (centres unmarked) [1-Buten-3-ol] | 261
CC(C)O [Isopropanol] | 226
C[C@@H](O)c1ccccc1 [(R)-1-Phenylethanol] | 225
C[C@@H](O)c1cc2ccoc2cn1 [(R)-5-(1-Hydroxyethyl)furo[2,3-c]pyridine] | 100
